Experimental data published in patent US10810329B2, “In silico design of peptides equilibrated in a lipid bilayer with partition free energies indicating probability of antimicrobial activity” (priority 2015, dated 2020).
Converted amounts (≈) assume the structure as drawn. Peptide text beside a SMILES is read from it.

How the values were obtained:
[1] = test system: E. coli ATCC 25922; assay type: cell-based, Escherichia coli; conditions: for Antimicrobial activity (MIC) Experimental values: ATCC 25922; for MIC in MH medium: ATCC 25922, 16 h
Experimental: (§1) MIC: Minimal Inhibitory Concentration of AMPs in MH Medium Against E. coli ATCC 25922 Minimal inhibitory concentration (MIC) represents for the lowest concentration of peptide at which the AMP can still kill 90% of the bacteria. All MIC tests for WLK peptide series SEQ ID NO:1-13 were measured against Escherichia coli strain (ATCC 25922) in triplicate. Peptide concentration was determined by UV spectrophotometer (Ultrospec 1100 pro from Amersham Biosciences) at 280 nm with proper extinction coefficient. (Gill S. C. & Von Hippel P. H., Analytical biochemistry 1989, 182(2), 319-326). All of the samples were prepared from a stock solution containing peptides of concentrations 5, 2.5, 1.25, 0.625, 0.313, 0.156 and 0.078 mg/ml. Bacteria culture in the middle of logarithmic growth at a concentration of 5×10^5 colony-formation unit (CFU) and protein solution at the aforementioned concentrations were uniformly mixed in a 96-well culture plate (each well contains 1 microliter protein solution and 99 microliter of bacteria culture). After growing the culture at 37° C. for 16 hours, how bacterial growth was inhibited was measured by Thermo Max (Molecular Devices) at the wavelength of 600 nm. The MIC values were determined by triplicates of the above experiments.

[2] = test system: Escherichia coli strain (ATCC 25922); assay type: cell-based
Experimental: as §1, with “Minimal” for “MIC: Minimal Inhibitory Concentration of AMPs in MH Medium Against E. coli ATCC 25922 Minimal”

[3] = test system: human red blood cells; assay type: cell-based
Experimental: Hemolysis Activity Test Hemolytic activity was determined by measuring hemolysis of human red blood cells. Fresh red blood cells and PBS buffer solution (pH 7.4) was mixed uniformly and centrifugated by relative centrigugal force (RCF) 800 g rpm for 10 minutes, washed and then diluted by the PBS buffer solution to 10% concentration by volume (v/v). All the tested peptides were prepared with different concentrations (800, 400, 200, 100, 50, 25, 12.5, 6.25, 3.13, 1.56 μg/ml) and then mixed with PBS buffer in 1:1 ratio (100 μL:100 μL) by volume. In 1:1 ratio (v/v), the red blood cell solution was mixed with a PBS buffer, with or without 2% Triton X-100, respectively as the positive and negative controls. All samples to be tested were settled at 37° C. environment for 1 hour. Next, the specimen was centrifuged under RCF 800 g for 10 minutes and the absorbance of its supernatant was measured at a wavelength of 450 nm. The hemolytic activity would be measured according to the following formula: “% hemolysis=[Asample−APBS]/[ATritonX100−APBS]”

Structure (SMILES) | Antimicrobial activity (MIC) Experimental values [1] [µg/mL] | MIC in MH medium [1] [µg/mL] | MIC in LYM medium, NaCl 50 [2] [µg/mL] | MIC in LYM medium, NaCl 100 [2] [µg/mL] | MIC in LYM medium, NaCl 200 [2] [µg/mL] | MIC in LYM medium, NaCl 300 [2] [µg/mL] | MIC in LYM medium, control [2] [µg/mL] | hemolytic activity on human erythrocytes [3]
CC(C)C[C@H](NC(=O)[C@H](Cc1c[nH]c2ccccc12)NC(=O)[C@H](CCCCN)NC(=O)[C@H](CC(C)C)NC(=O)[C@H](Cc1c[nH]c2ccccc12)NC(=O)[C@H](CCCCN)NC(=O)[C@H](CC(C)C)NC(=O)[C@@H](N)Cc1c[nH]c2ccccc12)C(=O)N[C@@H](CCCCN)C(=O)N[C@@H](CCCCN)C(=O)N[C@@H](CCCCN)C(=O)N[C@@H](CCCCN)C(=O)N[C@@H](CCCCN)C(=O)O [SEQ ID NO. 3, WLKWLKWLKKKKK] (H-WLKWLKWLKKKKK-OH; N-terminus and C-terminus assumed) | 6.25 | 6.25 (≈ 3.45 µM) | 3.13 (≈ 1.73 µM) | 3.13 (≈ 1.73 µM) | 12.5 (≈ 6.89 µM) | 25 (≈ 13.8 µM) | 1.56 (≈ 0.86 µM) | 
CC(C)C[C@H](NC(=O)[C@H](Cc1c[nH]c2ccccc12)NC(=O)[C@H](CCCCN)NC(=O)[C@H](CC(C)C)NC(=O)[C@H](Cc1c[nH]c2ccccc12)NC(=O)[C@H](CCCCN)NC(=O)[C@H](CC(C)C)NC(=O)[C@H](Cc1c[nH]c2ccccc12)NC(=O)[C@H](CCCCN)NC(=O)[C@H](CCCCN)NC(=O)[C@@H](N)CCCCN)C(=O)N[C@@H](CCCCN)C(=O)N[C@@H](CCCCN)C(=O)O [SEQ ID NO. 13, KKKWLKWLKWLKK] (H-KKKWLKWLKWLKK-OH; N-terminus and C-terminus assumed) | 1.56 | 1.56 (≈ 0.86 µM) | 3.13 (≈ 1.73 µM) | 1.56 (≈ 0.86 µM) | 3.13 (≈ 1.73 µM) | 12.5 (≈ 6.89 µM) | 1.56 (≈ 0.86 µM) | 
CC(C)C[C@H](NC(=O)[C@H](Cc1c[nH]c2ccccc12)NC(=O)[C@H](CCCCN)NC(=O)[C@H](CC(C)C)NC(=O)[C@H](Cc1c[nH]c2ccccc12)NC(=O)[C@H](CCCCN)NC(=O)[C@H](CC(C)C)NC(=O)[C@H](Cc1c[nH]c2ccccc12)NC(=O)[C@H](CCCCN)NC(=O)[C@@H](N)CCCCN)C(=O)N[C@@H](CCCCN)C(=O)N[C@@H](CCCCN)C(=O)N[C@@H](CCCCN)C(=O)O [SEQ ID NO. 1, KKWLKWLKWLKKK, reference compound] (H-KKWLKWLKWLKKK-OH; N-terminus and C-terminus assumed) | 3.13 | 3.13 (≈ 1.73 µM) | 1.56 (≈ 0.86 µM) | 3.13 (≈ 1.73 µM) | 6.25 (≈ 3.45 µM) | 6.25 (≈ 3.45 µM) | 1.56 (≈ 0.86 µM) | 
CC(C)C[C@H](NC(=O)[C@H](Cc1c[nH]c2ccccc12)NC(=O)[C@H](CCCCN)NC(=O)[C@H](CC(C)C)NC(=O)[C@H](Cc1c[nH]c2ccccc12)NC(=O)[C@H](CCCCN)NC(=O)[C@H](CC(C)C)NC(=O)[C@H](Cc1c[nH]c2ccccc12)NC(=O)[C@H](CCCCN)NC(=O)[C@H](CCCCN)NC(=O)[C@H](CCCCN)NC(=O)[C@@H](N)CCCCN)C(=O)N[C@@H](CCCCN)C(=O)O [SEQ ID NO. 12, KKKKWLKWLKWLK] (H-KKKKWLKWLKWLK-OH) | 1.56 | 1.56 (≈ 0.86 µM) | 1.56 (≈ 0.86 µM) | 3.13 (≈ 1.73 µM) | 3.13 (≈ 1.73 µM) | 3.13 (≈ 1.73 µM) | 1.56 (≈ 0.86 µM) | lower hemolytic activity
